Patent publication US11319343B2, “Method of treatment” (ROYAL MELBOURNE INSTITUTE OF TECHNOLOGY, priority 2017, dated 2022)
Residues, ends and D or L forms follow the SMILES beside them. No end group written: not given here.

Tests used:
[1] = test system: influenza A virus strain HKx31 (H3N2); type: cell-based
[2] = test system: NOX2 oxidase; test: NOX2 oxidase assembly (NOX2-p47phox association), confocal fluorescence microscopy; settings: pre-treatment: Dynasore 100 μM, bafilomycin A 100 nM, PD98059 30 μM
[3] = molecular target: T1, TLR7 (Mus musculus, UniProt P58681); type: cell-based; settings: for IFN-β, IL-1β, TNF-α and IL-6 expression in response to imiquimod: apocynin 300 μM pre-treatment, SOD 300 U/mL (basal or imiquimod-stimulated), catalase 1000 U/mL
T1 construct: endogenous in cells; host or cells: immortalized bone marrow-derived macrophages (BMDMs) or RAW264.7 cells
T1 sequence (P58681 27-1050): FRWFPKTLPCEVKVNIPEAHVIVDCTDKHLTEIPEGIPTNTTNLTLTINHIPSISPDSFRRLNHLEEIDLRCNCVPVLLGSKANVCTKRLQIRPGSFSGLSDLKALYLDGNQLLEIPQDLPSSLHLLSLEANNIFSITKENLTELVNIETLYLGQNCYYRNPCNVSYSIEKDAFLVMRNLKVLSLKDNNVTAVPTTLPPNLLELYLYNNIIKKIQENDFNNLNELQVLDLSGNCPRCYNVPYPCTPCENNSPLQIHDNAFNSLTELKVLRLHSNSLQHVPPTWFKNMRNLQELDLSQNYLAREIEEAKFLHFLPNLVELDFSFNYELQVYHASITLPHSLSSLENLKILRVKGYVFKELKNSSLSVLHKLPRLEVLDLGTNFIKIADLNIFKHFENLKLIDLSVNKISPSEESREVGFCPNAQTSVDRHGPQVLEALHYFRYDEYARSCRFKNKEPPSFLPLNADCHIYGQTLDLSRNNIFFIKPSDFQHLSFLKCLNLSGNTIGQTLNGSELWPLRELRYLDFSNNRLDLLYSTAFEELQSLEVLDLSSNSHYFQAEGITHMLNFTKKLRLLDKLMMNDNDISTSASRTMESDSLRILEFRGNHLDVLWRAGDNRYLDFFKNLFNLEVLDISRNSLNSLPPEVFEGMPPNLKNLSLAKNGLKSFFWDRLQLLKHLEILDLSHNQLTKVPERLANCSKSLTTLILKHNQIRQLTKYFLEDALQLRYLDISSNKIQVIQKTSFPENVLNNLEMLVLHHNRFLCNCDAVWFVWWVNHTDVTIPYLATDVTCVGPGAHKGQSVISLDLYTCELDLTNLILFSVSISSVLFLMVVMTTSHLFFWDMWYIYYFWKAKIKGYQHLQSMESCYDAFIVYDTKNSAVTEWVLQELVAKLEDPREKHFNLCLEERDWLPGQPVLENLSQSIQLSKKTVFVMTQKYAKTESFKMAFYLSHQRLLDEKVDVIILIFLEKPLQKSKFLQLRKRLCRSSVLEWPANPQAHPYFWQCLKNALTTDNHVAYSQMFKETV

[4] = test system: mouse primary alveolar macrophages; type: cell-based
[5] = Cell viability after C98i peptides; type: cell-based
[6] = test system: HKx31 influenza A virus; settings: mouse, in vivo
[7] = molecular target: T2, xanthine oxidase (Bos taurus, UniProt P80457); test: Xanthine/xanthine oxidase cell-free superoxide assay (ROS scavenging); type: biochemical; settings: 1 μM
T2 construct: purchased Sigma X1875
Description: Briefly, Krebs-HEPES buffer containing L-O12 (100 μM) was added into a 96-well Optiview plate. Following this, 0.1% w/v DMSO, unconjugated gp91dstat (Ugp91ds-TAT, 1 μM) or cholestanol-conjugated gp91ds-TAT (1 μM) were added in combination with Xanthine (100 μM). Immediately after xanthine oxidase (0.03 U/mL) was added, photon emission [relative light units (RLU)/s] was detected using the Chameleon (Trademark) luminescence detector (Hidex, model 425105, Finland) and recorded from each well for 1 s over 60 cycles. Individual data points for each group were derived from the average values of the three replicates minus the respective blank controls. Data are represented as raw values.

[8] = molecular target: T1, TLR7; test: TLR7 agonist response (cytokine expression) in bone marrow derived macrophages with C98i peptides; type: cell-based; settings: for inhibition of TLR7 agonist, imiquimod, response in vitro (IL-6 mRNA expression): peptides 100 μM + 10 μg/ml imiquimod, no TAT
[9] = test system: TLR9; type: cell-based, mouse; settings: CpG 10 μg/mL; apocynin
[10] = test system: TLR3; type: cell-based, mouse; settings: poly I:C 25 μg/mL; apocynin pre-treatment
[11] = test system: TLR7; type: cell-based, mouse
[12] = test system: PKC; test: Cytosolic PKC activity, FRET biosensor cytoCKAR; type: cell-based, mouse; settings: WT macrophages, imiquimod, within 5 min
[13] = test system: human alveolar macrophages; type: cell-based; settings: imiquimod 10 μg/mL, AMs from human
[14] = test system: TLR7 responses; type: in vivo; settings: imiquimod 50 μg/mouse intranasally, 24 h
[15] = test system: macrophage mitochondrial superoxide; test: Macrophage mitochondrial superoxide production; type: cell-based; settings: TLR7 activation with imiquimod
[16] = test system: pERK1/2; test: Cytosolic pERK1/2 activity, FRET biosensor; type: cell-based, mouse; settings: TLR7-dependent manner

T2 sequence (P80457 whole entry): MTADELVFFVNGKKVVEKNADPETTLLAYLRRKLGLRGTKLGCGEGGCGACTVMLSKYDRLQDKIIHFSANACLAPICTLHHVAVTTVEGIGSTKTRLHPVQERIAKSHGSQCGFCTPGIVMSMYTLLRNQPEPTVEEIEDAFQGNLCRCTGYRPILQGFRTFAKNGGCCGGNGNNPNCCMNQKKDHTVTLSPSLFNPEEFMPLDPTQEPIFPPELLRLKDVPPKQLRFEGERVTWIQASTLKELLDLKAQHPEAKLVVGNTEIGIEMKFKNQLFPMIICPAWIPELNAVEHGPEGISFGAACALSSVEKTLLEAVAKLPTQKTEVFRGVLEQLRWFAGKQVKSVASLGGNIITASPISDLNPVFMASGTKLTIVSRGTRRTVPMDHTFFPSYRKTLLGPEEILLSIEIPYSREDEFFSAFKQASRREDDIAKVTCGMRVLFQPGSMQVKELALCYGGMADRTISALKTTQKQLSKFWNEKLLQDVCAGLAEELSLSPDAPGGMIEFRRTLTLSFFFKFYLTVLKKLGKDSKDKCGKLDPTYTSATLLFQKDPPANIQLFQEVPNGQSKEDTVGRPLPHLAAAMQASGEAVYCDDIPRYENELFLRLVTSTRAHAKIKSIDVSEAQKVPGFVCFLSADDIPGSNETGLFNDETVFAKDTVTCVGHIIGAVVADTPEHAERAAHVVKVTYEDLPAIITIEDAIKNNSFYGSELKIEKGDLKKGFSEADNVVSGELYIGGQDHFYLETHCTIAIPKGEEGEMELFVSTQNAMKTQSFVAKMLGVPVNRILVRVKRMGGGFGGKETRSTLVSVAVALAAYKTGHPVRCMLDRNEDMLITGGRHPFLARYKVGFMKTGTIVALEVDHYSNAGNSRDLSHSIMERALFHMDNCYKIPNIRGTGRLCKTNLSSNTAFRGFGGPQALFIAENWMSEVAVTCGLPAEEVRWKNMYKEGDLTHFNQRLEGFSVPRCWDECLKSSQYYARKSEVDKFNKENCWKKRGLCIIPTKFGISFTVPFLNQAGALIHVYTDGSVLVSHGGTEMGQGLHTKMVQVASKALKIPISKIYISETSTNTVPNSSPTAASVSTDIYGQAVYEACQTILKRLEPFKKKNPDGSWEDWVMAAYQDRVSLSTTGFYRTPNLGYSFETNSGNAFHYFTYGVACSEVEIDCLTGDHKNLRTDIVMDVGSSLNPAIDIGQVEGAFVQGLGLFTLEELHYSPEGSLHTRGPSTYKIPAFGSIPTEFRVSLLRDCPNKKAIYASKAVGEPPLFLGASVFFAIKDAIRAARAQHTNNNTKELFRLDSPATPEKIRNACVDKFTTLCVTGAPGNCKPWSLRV

O=C(N/N=C/c1ccc(O)c(O)c1)c1cc2ccccc2cc1O [Dynasore]
influenza nucleoprotein (NP) fluorescence [1]: almost abolished | co-location (association) of NOX2 and p47phox caused by influenza virus [2]: reduced | catalase-dependent increase in cytokines ([3]; WT macrophages treated with Dynasore (100 μM)): significantly suppressed

COc1cccc(-c2cc(=O)c3ccccc3o2)c1N [PD98059]
co-location (association) of NOX2 and p47phox caused by influenza virus [2]: did not influence | endosomal ROS production (OxyBURST) in response to influenza A virus [4]: did not influence

CC(C)C[C@H](NC(=O)[C@@H](NC(=O)[C@@H]1CCCN1C(=O)[C@@H](NC(=O)[C@H](CS)NC(=O)[C@H](CC(N)=O)NC(=O)[C@H](CS)NC(=O)[C@H](CCCNC(=N)N)NC(=O)[C@H](CC(C)C)NC(=O)[C@@H](N)CC(=O)O)C(C)C)C(C)C)C(N)=O [C98i no TAT, DLRCNCVPVL-NH2] (H-DLRCNCVPVL-NH2)
cell viability [5]: no adverse effect

YGRKK-RRQRR-RCSTR-IRRQL-NH2 [Ugp91ds-TAT]
decrease in lung influenza A viral burden [6]: ~10,000 fold | lung IFN-β mRNA levels compared to the control virus group [6]: failed to do so | superoxide production in BALF inflammatory cells [6]: almost abolished | weight loss caused by influenza A virus at day 3 [6]: significantly reduced the weight loss

CC(C)C[C@H](NC(=O)[C@@H](NC(=O)[C@@H]1CCCN1C(=O)[C@@H](NC(=O)[C@H](CS)NC(=O)[C@H](CC(N)=O)NC(=O)[C@H](CS)NC(=O)[C@H](CCCNC(=N)N)NC(=O)[C@H](CC(C)C)NC(=O)[C@H](CC(=O)O)NC(=O)[C@H](CCCNC(=N)N)NC(=O)[C@H](CCCNC(=N)N)NC(=O)[C@H](CCCNC(=N)N)NC(=O)[C@H](CCC(N)=O)NC(=O)[C@H](CCCNC(=N)N)NC(=O)[C@H](CCCNC(=N)N)NC(=O)[C@H](CCCCN)NC(=O)[C@H](CCCCN)NC(=O)[C@H](CCCNC(=N)N)NC(=O)CNC(=O)[C@@H](N)Cc1ccc(O)cc1)C(C)C)C(C)C)C(N)=O [C98i] (H-YGRKKRRQRRRDLRCNCVPVL-NH2)
cell viability [5]: no adverse effect

Ac-Asp(OChol)-PEG4-PEG3-PEG4-gp91-NH2 [Cgp91ds-TAT]
ROS scavenging properties [7]: not attributed to enhanced ROS scavenging properties | airway inflammation [6]: almost abolished | decrease in lung influenza A viral burden [6]: ~10,000 fold | lung IFN-β mRNA levels compared to the control virus group [6]: significantly increased | reduction in airways inflammation [6]: ~40% | superoxide production in BALF inflammatory cells [6]: almost abolished | weight loss caused by influenza A virus at day 3 [6]: significantly reduced the weight loss

CC(=O)c1ccc2c(c1)Nc1ccccc1S2 [ML171]
endosomal ROS production (OxyBURST) in response to influenza A virus [4]: unaffected

RCNA-NH2
inhibition of TLR7 agonist, imiquimod, response in vitro (IL-6 mRNA expression) [8]: none

RANA-NH2
inhibition of TLR7 agonist, imiquimod, response in vitro (IL-6 mRNA expression) [8]: none

COc1cc(C(C)=O)ccc1O [apocynin, 4′-Hydroxy-3′-methoxy acetophenone]
increases in IFN-β, IL-1β, TNF-α and IL-6 triggered by CpG [9]: unaffected | IFN-β, IL-1β, TNF-α and IL-6 expression in response to poly I:C [10]: suppressed | IFN-β, IL-1β, TNF-α and IL-6 expression in response to imiquimod ([3]; WT macrophages): significantly enhanced

RANC-NH2
inhibition of TLR7 agonist, imiquimod, response in vitro (IL-6 mRNA expression) [8]: none

RCNC—NH2 (RCNC-NH2; cysteine pairing not given here)
inhibition of TLR7 agonist, imiquimod, response in vitro (IL-6 mRNA expression) [8]: none

catalase
cytokine expression in cells expressing mutated TLR7 [11]: little or no effect | TLR7, TREML4 or NLRP3 expression ([11]; catalase): no effect | cytokine expression in cells with WT TLR7 or TLR7C445A ([11]; catalase 1000 U/mL, transfected TLR7−/− macrophages): markedly increased | IFN-β and IL-1β expression ([3]; 1 hr pulse catalase 1000 U/mL, after 24 h, WT macrophages): significant elevations | IFN-β, IL-1β, TNF-α and IL-6 expression in response to imiquimod ([3]; WT macrophages): significantly increased

YGRKKRRQRRRCLVPNDCRLV-NH2 [scrambled C98i]
inhibition of TLR7 agonist (imiquimod) ([8]; scrambled sequence with TAT): not able to inhibit

CO/C1=C\C(C)=C\[C@@H](C)[C@@H](O)[C@@H](C)C/C(C)=C/C=C/[C@H](OC)[C@@H]([C@@H](C)[C@@H](O)[C@H](C)[C@@]2(O)C[C@@H](O)[C@H](C)[C@@H](C(C)C)O2)OC1=O [bafilomycin A]
co-location (association) of NOX2 and p47phox caused by influenza virus [2]: reduced | NOX2 dependent ROS production in response to virus infection and to imiquimod [4]: abolished | endosomal ROS production (OxyBURST) in response to influenza A virus [4]: abolished the LysoTracker fluorescence and endosomal ROS production

CC(C)Cn1cnc2c(N)nc3ccccc3c21 [imiquimod]
cytosolic PKC activity [12]: elevated cytosolic PKC activity | endosomal ROS production caused by the agonist [13]: markedly increased endosomal ROS | lung IFN-β, IL-1β, IL-6 and TNF-α ([14]; NOX2−/y mice): elevated levels | airway inflammation ([14]; WT and NOX2−/y mice): no discernible alterations | macrophage mitochondrial superoxide production [15]: failed to increase | cytosolic pERK1/2 [16]: increased cytosolic pERK1/2 | IFN-β, IL-1β, TNF-α and IL-6 expression ([3]; imiquimod alone, WT macrophages): significant elevation | endosomal ROS production caused by the agonist [4]: markedly increased endosomal ROS
